Source: PMC8541017, “Potent and Selective Inhibitors of Human Monoamine Oxidase A from an Endogenous Lichen Fungus Diaporthe mahothocarpus” (Journal of Fungi, 2021)
Several values for one entry are separate records, joined by “and”; a condition that tells them apart may be missing. Equal entries are not always repeated. Where two headings read alike, the source gives them in different places.

Key:
[1] = target: T1, hMAO-A (Homo sapiens, UniProt P21397); conditions: cited from earlier work
T1 sequence (P21397 1-527): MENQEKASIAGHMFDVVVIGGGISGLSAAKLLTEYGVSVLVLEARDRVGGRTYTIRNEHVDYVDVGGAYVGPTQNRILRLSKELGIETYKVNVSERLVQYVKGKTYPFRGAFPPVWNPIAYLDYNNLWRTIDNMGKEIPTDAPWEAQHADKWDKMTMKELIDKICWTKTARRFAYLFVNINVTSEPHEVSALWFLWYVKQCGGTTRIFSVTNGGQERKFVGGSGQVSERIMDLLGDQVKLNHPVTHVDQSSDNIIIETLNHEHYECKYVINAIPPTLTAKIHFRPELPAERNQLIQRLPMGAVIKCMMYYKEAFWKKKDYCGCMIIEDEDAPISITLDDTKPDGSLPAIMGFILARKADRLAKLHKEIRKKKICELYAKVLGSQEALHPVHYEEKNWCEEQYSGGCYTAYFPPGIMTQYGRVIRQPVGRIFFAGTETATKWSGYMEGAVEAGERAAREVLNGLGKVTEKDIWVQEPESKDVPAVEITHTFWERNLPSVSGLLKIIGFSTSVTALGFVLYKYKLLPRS

[2] = target: T2, hMAO-B (Homo sapiens, UniProt P27338); set-up: method as in PMID 33530616; conditions: cited from earlier work
T2 sequence (P27338 1-520): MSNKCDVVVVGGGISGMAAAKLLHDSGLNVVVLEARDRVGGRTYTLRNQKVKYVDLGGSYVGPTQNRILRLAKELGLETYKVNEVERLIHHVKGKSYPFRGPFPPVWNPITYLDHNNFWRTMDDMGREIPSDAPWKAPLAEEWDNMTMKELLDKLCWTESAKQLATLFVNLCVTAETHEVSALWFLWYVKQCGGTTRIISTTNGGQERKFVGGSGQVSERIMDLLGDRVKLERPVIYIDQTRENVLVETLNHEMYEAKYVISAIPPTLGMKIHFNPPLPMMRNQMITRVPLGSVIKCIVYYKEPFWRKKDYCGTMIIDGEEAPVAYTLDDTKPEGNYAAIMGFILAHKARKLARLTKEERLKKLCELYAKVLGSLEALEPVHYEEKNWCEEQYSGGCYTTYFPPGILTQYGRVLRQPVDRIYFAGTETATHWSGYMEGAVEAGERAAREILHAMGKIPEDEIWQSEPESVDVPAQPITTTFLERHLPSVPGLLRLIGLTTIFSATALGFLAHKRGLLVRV

[3] = system: MAO; conditions: read-out: IC50 MAO inhibitory activity; cited from earlier work
[4] = system: topoisomerase II; conditions: cited from earlier work
[5] = target: T1, hMAO-A; assay type: biochemical; conditions: for reversibility of hMAO-A inhibition: recovery test after dialysis; for residual hMAO-A activity after dialysis / residual hMAO-A activity before dialysis: ~2 × IC50: AT 0.040 µM, HAT 0.60 µM, MED 18.0 µM, toloxatone 2.0 µM, clorgyline 0.014 µM
[6] = target: T3, AChE (Electrophorus electricus, UniProt O42275); assay: biochemical; set-up: species or system electric eel; conditions: for remaining activity at 10 µM: read-out: Residual Activity at 10 µM (%) AChE
T3 construct: AChE from electric eel and BChE from horse serum were used; from tissue; host or cells: electric eel
T3 sequence (O42275 24-633): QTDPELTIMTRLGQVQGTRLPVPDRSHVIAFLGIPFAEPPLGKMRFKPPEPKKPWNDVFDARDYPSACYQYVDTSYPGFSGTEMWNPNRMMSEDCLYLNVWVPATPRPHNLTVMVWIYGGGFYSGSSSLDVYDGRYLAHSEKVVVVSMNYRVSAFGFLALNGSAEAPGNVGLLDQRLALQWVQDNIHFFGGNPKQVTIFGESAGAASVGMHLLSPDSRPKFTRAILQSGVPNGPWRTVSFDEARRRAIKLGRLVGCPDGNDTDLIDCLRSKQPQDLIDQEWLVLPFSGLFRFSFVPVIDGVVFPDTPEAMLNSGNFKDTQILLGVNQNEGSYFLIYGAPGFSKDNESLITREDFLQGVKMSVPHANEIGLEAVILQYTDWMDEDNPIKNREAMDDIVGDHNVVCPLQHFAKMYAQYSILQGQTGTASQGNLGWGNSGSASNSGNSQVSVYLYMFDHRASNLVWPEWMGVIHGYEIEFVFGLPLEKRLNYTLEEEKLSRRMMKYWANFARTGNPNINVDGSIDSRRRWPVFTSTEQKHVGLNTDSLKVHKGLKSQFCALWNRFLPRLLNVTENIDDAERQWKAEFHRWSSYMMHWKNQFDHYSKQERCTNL

[7] = target: T1, hMAO-A; assay: biochemical; conditions: for Residual Activity (%) hMAO-A: 1-µM concentration (footnote a); for inhibition type for hMAO-A: Lineweaver–Burk plot; for SI (selectivity index): hMAO-B/hMAO-A using IC50 values; for remaining activity at 2 µg/mL: read-out: Residual Activity at 2 µg/mL (%) hMAO-A
Experimental: (§1) Human recombinant MAO-A and MAO-B were assayed in a reaction mixture of 0.5 mL containing 50 mM sodium phosphate buffer (pH 7.2) and the substrates (0.06 mM kynuramine for hMAO-A and 0.3 mM benzylamine for hMAO-B). […] [30, 31]. The reactions were started with the addition of substrates without preincubation of the enzyme and inhibitor.

[8] = target: T2, hMAO-B; assay: biochemical; conditions: for Residual Activity (%) hMAO-B: 1-µM concentration (footnote a)
Experimental: as §1

[9] = target: T4, BChE (Equus caballus, UniProt P81908); assay: biochemical; set-up: species or system horse; conditions: read-out: Residual Activity at 10 µM (%) BChE
T4 construct: from tissue; host or cells: horse serum
T4 sequence (P81908 whole entry): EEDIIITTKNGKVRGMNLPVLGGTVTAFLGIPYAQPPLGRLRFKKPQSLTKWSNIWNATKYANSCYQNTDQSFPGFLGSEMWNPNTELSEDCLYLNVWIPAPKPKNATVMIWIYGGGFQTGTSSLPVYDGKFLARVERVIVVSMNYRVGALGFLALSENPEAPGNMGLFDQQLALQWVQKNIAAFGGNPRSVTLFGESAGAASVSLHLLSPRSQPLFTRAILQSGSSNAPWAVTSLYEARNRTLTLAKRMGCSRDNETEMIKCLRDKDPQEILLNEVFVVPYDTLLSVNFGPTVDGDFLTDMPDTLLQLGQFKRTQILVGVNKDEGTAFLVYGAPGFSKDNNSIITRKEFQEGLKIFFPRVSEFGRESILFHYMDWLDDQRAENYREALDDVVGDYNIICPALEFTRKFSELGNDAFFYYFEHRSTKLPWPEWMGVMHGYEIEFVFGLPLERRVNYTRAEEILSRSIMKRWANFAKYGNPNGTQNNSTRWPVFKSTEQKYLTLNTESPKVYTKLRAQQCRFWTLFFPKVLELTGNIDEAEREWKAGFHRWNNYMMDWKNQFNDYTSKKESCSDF
Experimental: AChE from electric eel and BChE from horse serum were used for cholinesterases and assayed with a slight modification of the Ellman method. Shortly, after pre-incubating the enzyme and inhibitor for 15 min in 100 mM of sodium phosphate buffer (pH 7.5), 0.5 mM acetylthiocholine iodide (ATCI) or butyrylthiocholine iodide (BTCI) was added as a substrate for AChE or BChE assay, respectively. Then, 0.5 mM 5,5-dithiobis (2-nitrobenzoic acid) (DTNB) was added for color development for a final volume of 0.5 mL. Enzyme activity was measured for 15 min at room temperature in a kinetic mode at 412 nm.

[10] = target: BACE1 (Homo sapiens, UniProt P56817); assay: BACE1 activity assay (fluorescence kit); conditions: for IC50: IC50 BACE1; for remaining activity at 10 µM: read-out: Residual Activity at 10 µM (%) BACE1
Chain of BACE1 (P56817 46-501): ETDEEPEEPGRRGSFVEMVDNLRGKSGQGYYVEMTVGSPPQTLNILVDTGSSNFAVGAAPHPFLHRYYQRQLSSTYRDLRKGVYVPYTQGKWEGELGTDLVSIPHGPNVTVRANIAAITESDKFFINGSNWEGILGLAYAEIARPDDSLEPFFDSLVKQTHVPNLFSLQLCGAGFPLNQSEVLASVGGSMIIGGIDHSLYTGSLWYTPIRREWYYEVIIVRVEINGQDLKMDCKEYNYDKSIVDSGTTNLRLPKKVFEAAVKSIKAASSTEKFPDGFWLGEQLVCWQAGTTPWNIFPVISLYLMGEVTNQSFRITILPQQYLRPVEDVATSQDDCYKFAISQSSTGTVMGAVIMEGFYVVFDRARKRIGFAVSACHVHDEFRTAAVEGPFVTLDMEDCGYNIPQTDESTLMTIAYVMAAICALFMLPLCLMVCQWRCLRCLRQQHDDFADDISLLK
Experimental: Assays for inhibitory activities of compounds against hMAO-A, hMAO-B, AChE, BChE, and BACE1 were performed at 10-µM concentration of inhibitor.

| SMILES | IC50 [1] | reversibility of hMAO-A inhibition [5] | residual hMAO-A activity after dialysis [5] | residual hMAO-A activity before dialysis [5] | IC50 [6] | remaining activity at 10 µM [6] | Ki [7] | times higher hMAO-A inhibitory activity than toloxatone [7] | Residual Activity (%) hMAO-A [7] | IC50 ([7]; IC50 hMAO-A) | inhibition type for hMAO-A [7] | SI (selectivity index) [7] | remaining activity at 2 µg/mL [7] | IC50 [8] | Residual Activity (%) hMAO-B [8] | remaining activity at 10 µM [9] | IC50 [10] | remaining activity at 10 µM [10] | other results |
| --- | --- | --- | --- | --- | --- | --- | --- | --- | --- | --- | --- | --- | --- | --- | --- | --- | --- | --- | --- |
| CC1CC(=O)c2c(O)cccc2O1 (centres unmarked) [hydroxy-2-methyl-chroman-4-one] | 14 µM |  |  |  |  |  |  |  |  |  |  |  |  |  |  |  |  |  | IC50 [2]: 3.23 µM |
| CCCCCC(=O)c1c(O)cc2c(c1O)C(=O)c1c(O)cc(OC)cc1C2=O [solorinic acid] |  |  |  |  |  |  |  |  |  |  |  |  |  |  |  |  |  |  | IC50 [3]: 14.3 µM |
| COc1cc(O)c2c(=O)oc3cc(O)cc(C)c3c2c1 [alternariol monomethyl ether] | 1.71 µM |  |  |  |  |  |  |  |  |  |  |  |  |  |  |  |  |  |  |
| Cc1cc(O)cc2oc(=O)c3c(O)cc(O)cc3c12 [AT, alternariol] |  | reversible inhibitors | 60.5% | 33.5% | 10 ± 0.9 µM | 58.7 ± 2% | 7.5 nM | 54.0 times | −3.1 ± 0.0% | 0.02 ± 0.001 µM | reversible competitive inhibitors | 1035 | -5.41 ± 0.98% | 20.7 ± 2.2 µM | 75.6 ± 2.3% | 93.3 ± 4.1% | 36.7 ± 3.3 µM | 80.9 ± 0.2% | concentration at which ROS formation and topoisomerase II interaction relate to toxicity [4]: > 10 µM |
| Cc1c(O)c(O)cc2oc(=O)c3c(O)cc(O)cc3c12 [HAT, 5′-hydroxy-alternariol] |  | reversible inhibitors | 79.4% | 42.1% | 19.9 ± 0.2 µM | 65.6 ± 3.8% | 116 nM | 3.5 times | 17.7 ± 1.1% | 0.31 ± 0.02 µM | reversible competitive inhibitors | >129 | 3.39 ± 3.43% | > 40 µM | 83.3 ± 4.0% | 96.2 ± 2.3% | 24.7 µM | 71.3 ± 3.8% | times effective against hMAO-A than alternariol monomethyl ether ([7]; ratio of IC50 values): 5.5 times |
| CC(=O)O[C@H]1C=CC(=O)O[C@H]1[C@@H]1[C@H](C)[C@H]2C=CC=C[C@@H]1O2 [MED, mycoepoxydiene] |  | reversible inhibitors | 83.7% | 28.7% |  | 65.2 ± 2.7% |  |  |  |  | reversible competitive inhibitors | >4.59 |  |  |  | 95.5 ± 5.5% | 35.9 ± 0.3 µM | 80.5 ± 2.7% | IC50 ([6]; read-out: IC50 AChE): 18.6 ± 1.3 µM; Ki ([7]; Lineweaver–Burk secondary plot, read-out: Ki hMAO-A): 3760 nM; remaining activity at 2 µg/mL ([7]; isolated compounds from ELF29, 2 µg/mL): 66.7 ± 1.84%; IC50 ([7]; read-out: IC50 hMAO-A): 8.68 µM and 8.7 µM; remaining activity at 10 µM ([7]; read-out: Residual Activity at 10 µM (%) hMAO-A): 42.7 ± 0.9%; IC50 ([8]; read-out: IC50 hMAO-B): > 40 µM; remaining activity at 10 µM ([8]; read-out: Residual Activity at 10 µM (%) hMAO-B): 85.4 ± 6.9% |
